Measurements: patent publication US20030190396A1, “Methods and compositions for altering the sweetness delivery profile of sucralose” (priority 2002, published 2003)
Where a SMILES comes first, the peptide text is derived from it.

Columns and labels:
rats = conditions: cited from earlier work
[1] = Subcutaneous water retention in bodybuilders on a pre-competition diet (caliper test and visual inspection, Example 6); format: in vivo, human; conditions: ten bodybuilders; 12-week pre-competition diet with this sweetener only; caliper test and muscle definition score twice weekly
Method: This study was defined to determine whether the ingestion of sucralose results in reduced subcutaneous water retention compared to the water retention resulting from the ingestion of aspartame. Ten bodybuilders on a pre-competition diet were closely monitored. Prior to the pre-competition diet, the body fat and the weight of the ten bodybuilders were measured. Prior to this study, the participants in their normal diet refrained for one week from any products containing either sucralose or aspartame.
In the first phase of the study, during the 12-week pre-competition diet, the body builders consumed goods and liquids that were sweetened with aspartame only. Two methods for assessing subcutaneous water retention were used. […] As a second test, the subjective visual inspection was used, where the abdomen and overall body definition were visually inspected and photographed. As with the objective test, the subjects' muscle definition-value was determined twice weekly. A scale of 1 to 10 for muscle definition was used as an indicator for subcutaneous water retention, with a score of 10 indicating excellent muscle definition and 1 indicating poor definition. […]

[2] = Roberts, J. Appl. Nutr. 1988; cited from earlier work
[3] = in vivo; cited from earlier work

subcutaneous water retention [1] | SMILES | risk of causing cancer (rats) | water retention within the body [2] | sweetness intensity relative to sucrose [3]
 | O=C1NS(=O)(=O)c2ccccc21 [Saccharin] | reported to be a risk in causing cancer in rats |  | 
makes the body retain water | COC(=O)[C@H](Cc1ccccc1)NC(=O)[C@@H](N)CC(=O)O [aspartame, N-L-α-aspartyl-L-phenylalanine methyl ester] (H-Asp-Phe-OMe) |  | linked with excessive water retention within the body | 
This effect is reduced | OC[C@H]1O[C@H](O[C@]2(CCl)O[C@H](CCl)[C@@H](O)[C@@H]2O)[C@H](O)[C@@H](O)[C@H]1Cl [sucralose, 4,1′,6′-trichloro-4,1′,6′-trideoxygalactosucrose] |  |  | several hundred times that of sucrose
